{"source": "patent US8404692B2", "about": "“Pyrimidin-4-yl-3, 4-dihydro-2H-pyrrolo [1,2A] pyrazin-1-one compounds” (Cyclacel Limited, priority 2005, dated 2013)", "key": {"MiaPaCa": {"tested_on": "MiaPaCa", "experiment": "MTT cytotoxicity assay MiaPaCa", "type": "cell-based", "settings": "Homo sapiens, MIA PaCa-2; MiaPaCa cells, 96-h MTT", "protocol": "(§1) The compounds of the invention were subjected to a standard cellular proliferation assay using cell lines […] and MiaPaCa (obtained from The European Collection of Cell Cultures). […] C.; Thomas, D. G.; Darling, J. L. Anti Cancer Drugs 1996, 7, 331-8; Loveland, B. E.; Johns, T. G.; Mackay, I. R.; Vaillant, F.; Wang, Z. X.; Hertzog, P. J. Biochemistry International 1992, 27, 501-10). In short: cells were seeded into 96-well plates according to doubling time and incubated overnight at 37° C. […] MTT was made up as a stock of 5 mg/mL in cell media and filter-sterilised. Media was removed from cells followed by a wash with 200 μL PBS. MTT solution was then added at 20 μL per well and incubated in the dark at 37° C. for 4 h. MTT solution was removed and cells again washed with 200 μL PBS. MT dye was solubilised with […] per well of DMSO with agitation. Absorbance was read at 540 nm and data analysed using curve-fitting software (GraphPad Prism version 3.00 for Windows, GraphPad Software, San Diego Calif. USA) to determine IC50 values (concentration of test compound which inhibits cell growth by 50%)."}, "aurora-A (human)": {"biological_target": "T1, aurora-A (human) (Homo sapiens, UniProt O14965)", "T1 construct": "purchased Upstate, Dundee, UK", "T1 sequence (O14965 1-403)": "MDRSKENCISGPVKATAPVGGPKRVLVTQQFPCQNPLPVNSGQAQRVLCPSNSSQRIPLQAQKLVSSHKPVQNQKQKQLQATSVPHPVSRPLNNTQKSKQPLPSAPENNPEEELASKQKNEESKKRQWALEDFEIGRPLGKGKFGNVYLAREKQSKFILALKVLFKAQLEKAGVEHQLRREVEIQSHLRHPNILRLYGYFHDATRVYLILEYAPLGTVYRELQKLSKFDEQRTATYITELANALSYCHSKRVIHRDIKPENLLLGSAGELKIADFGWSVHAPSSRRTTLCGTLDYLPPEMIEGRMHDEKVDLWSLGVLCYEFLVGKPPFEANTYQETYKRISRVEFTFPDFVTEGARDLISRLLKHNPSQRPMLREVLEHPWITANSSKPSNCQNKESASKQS", "experiment": "Aurora-A (human) kinase assay", "type": "biochemical", "settings": "read-out: Activity (Aurora A activity, IC50 grading)", "method_in_brief": "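Radiometric assay measuring [γ-32P] transfer from 100 μM ATP to 500 μM Kemptide by 2-5 ng active human aurora-A, pH 7.5 buffer, 30 min at 30° C. Incorporated label captured on P81 filters and counted by scintillation; IC50 from curve fitting.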"}, "human CDK7/cyclin H": {"biological_target": "human CDK7/cyclin H (Homo sapiens, UniProt P50613)", "sequence (P50613 whole entry)": "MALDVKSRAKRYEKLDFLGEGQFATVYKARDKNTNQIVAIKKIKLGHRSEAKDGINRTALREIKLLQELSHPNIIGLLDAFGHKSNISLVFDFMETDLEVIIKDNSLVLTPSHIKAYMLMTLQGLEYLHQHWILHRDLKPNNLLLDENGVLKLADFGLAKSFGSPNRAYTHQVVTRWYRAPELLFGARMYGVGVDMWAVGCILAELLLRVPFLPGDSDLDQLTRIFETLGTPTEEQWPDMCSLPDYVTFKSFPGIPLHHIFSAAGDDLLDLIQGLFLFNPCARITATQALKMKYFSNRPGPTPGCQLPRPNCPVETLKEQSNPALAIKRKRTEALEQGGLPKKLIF", "sequence (P51946 whole entry partner)": "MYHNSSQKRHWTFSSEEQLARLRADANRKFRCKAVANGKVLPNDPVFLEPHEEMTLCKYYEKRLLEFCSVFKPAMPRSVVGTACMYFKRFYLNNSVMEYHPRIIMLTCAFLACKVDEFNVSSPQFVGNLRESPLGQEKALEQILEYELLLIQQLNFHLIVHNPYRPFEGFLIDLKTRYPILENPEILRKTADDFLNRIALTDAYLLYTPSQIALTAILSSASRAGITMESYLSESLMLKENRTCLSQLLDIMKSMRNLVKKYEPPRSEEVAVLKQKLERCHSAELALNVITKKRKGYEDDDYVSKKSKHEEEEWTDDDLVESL", "experiment": "CDK 7 and 9 assays: CDK7/H", "type": "biochemical", "settings": "in vitro kinase data", "protocol": "(§2) The compounds of the invention above were investigated for their ability to inhibit the enzymatic activity of various protein kinases. This was achieved by measurement of incorporation of radioactive phosphate from ATP into appropriate polypeptide substrates. Recombinant protein kinases and kinase complexes were produced or obtained commercially. Assays were performed using 96-well plates and appropriate assay buffers (typically 25 mM β-glycerophosphate, 20 mM MOPS, 5 mM EGTA, 1 mM DTT, 1 mM […], pH 7.4), into which were added 2-4 μg of active enzyme with appropriate substrates. The reactions were initiated by addition of Mg/ATP mix (15 mM MgCl2+100 μM ATP with 30-50 kBq per well of [γ-^32P]-ATP) and mixtures incubated as required at 30° C. Reactions were stopped on ice, followed by filtration through p81 filterplates or GF/C filterplates (Whatman Polyfiltronics, Kent, UK). After washing 3 times with 75 mM aq orthophosphoric acid, plates were dried, scintillant added and incorporated radioactivity measured in a scintillation counter (TopCount, Packard Instruments, Pangbourne, Berks, UK). Compounds for kinase assay were made up as 10 mM stocks in DMSO and diluted into 10% DMSO in assay buffer. Data was analysed using curve-fitting software (GraphPad Prism version 3.00 for Windows, GraphPad Software, San Diego Calif. USA) to determine IC50 values (concentration of test compound which inhibits kinase activity by 50%).\nCTD peptide substrate (biotinyl-Ahx-(Tyr-Ser-Pro-Thr-Ser-Pro-Ser)4-NH2; 1-2 mg/mL) and recombinant human CDK7/cyclin H, CDK9/cyclin T1, or CDK9/cyclin K (0.5-2 μg) were incubated for 45 min at 30° C. in the presence of varying amounts of test compound in 20 mM MOPS pH 7.2, 25 mM β-glycerophosphate, 5 mM EGTA, 1 mM DTT, 1 mM sodium vanadate, 15 mM MgCl2, and 100 μM ATP (containing a trace amount of ^32PγATP) in a total volume of 25 μL in a 96-well microtiter plate. […] Microscint 40 scintillation liquid (50 μL) was added to each well, and the amount of ^32P incorporation for each sample was measured using a Packard Topcount microplate scintillation counter."}, "CDK2/E": {"biological_target": "CDK2/E (Homo sapiens, UniProt P24941)", "experiment": "In vitro kinase assay CDK2/E", "type": "biochemical", "settings": "in vitro kinase data", "protocol": "as §2, with “Data was analysed using curve-fitting software (GraphPad Prism version 3.00 for Windows, GraphPad Software, San Diego Calif. USA) to determine IC50 values (concentration of test compound which inhibits kinase activity by 50%).” left out"}, "[1]": {"tested_on": "nuclear phospho-Histone H3 and/or MPM2 staining", "experiment": "Cellomics Arrayscan assay for mitotic index (PH3 and MPM2 staining)", "type": "cell-based", "settings": "for IC50: IC50 of phosphorylated Histone H3 staining normalised using MPM2 staining, read-out: MI (Cellomics) PH3/MPM2 IC50*; for MI (Cellomics) MPM2 % of Control**: cells stained with MPM2 Ab after treatment, as % of MPM2 stained cells treated with vehicle (DMSO)", "protocol": "The percentage of cells with nuclear phospho-Histone H3 and/or MPM2 staining were determined in 96-well plate assays using the Cellomics Arrayscan Mitotic Index HitKit protocol (Cellomics Inc). Briefly, cells were plated at 10^4 cells per well and incubated for 16-18 h at 37° C. Compounds were added and the cells incubated for the appropriate time before a 15 min fixation in 3.7% formaldehyde in wash buffer (Cellomics Inc.). Cells were permeabilised in 0.2% Triton in wash buffer for 15 min, washed, then incubated with primary antibodies that specifically recognise mitotic epitopes; rabbit anti-phosphohistone H3 (Upstate 06570) or mouse anti-phospho-Ser/Thr-Pro MPM2 (Upstate 05-368). After a 1 h incubation cells were washed and incubated with secondary FITC-conjugated anti-mouse and/or TRITC-conjugated anti-rabbit secondary antibodies (Jackson laboratories) and Hoescht dye. After a further 1 h incubation the cells were washed, then the plate was analysed using a Cellomics Arrayscan II automated fluorescent microscopy system to detect nuclear fluorescent staining. Data for 2000 cells per well were stored and the percentage of cells expressing mitotic epitopes compared to total cells (stained with Hoescht dye) was calculated using the Cellomics mitotic index algorithm."}, "A2780": {"tested_on": "A2780", "experiment": "MTT cytotoxicity assay A2780", "type": "cell-based", "settings": "Homo sapiens; A2780 cells, 96-h MTT", "protocol": "as §1"}}, "data": [{"compound": "Cc1c(-c2ccnc(Nc3ccc(F)cc3)n2)c(C)n2c1C(=O)NCC2", "note": "[Example I-1, 7-[2-(4-Fluoro-phenylamino)-pyrimidin-4-yl]-6,8-dimethyl-3,4-dihydro-2H-pyrrolo[1,2-a]pyrazin-1-one]", "values": [{"measurement": "IC50", "setting": "MiaPaCa", "value": "> 10000", "unit": "nM"}, {"measurement": "IC50", "setting": "aurora-A (human)", "value": "< 1000", "unit": "nM"}, {"measurement": "Ki", "setting": "human CDK7/cyclin H", "value": 2990, "unit": "nM"}, {"measurement": "Ki", "setting": "CDK2/E", "value": 1130, "unit": "nM"}, {"measurement": "IC50", "setting": "[1]", "value": 16300, "unit": "nM"}, {"measurement": "MI (Cellomics) MPM2 % of Control**", "setting": "[1]", "value": 239, "unit": "%"}, {"measurement": "IC50", "setting": "A2780", "value": 4470, "unit": "nM"}]}, {"compound": "COc1cc(Nc2nccc(-c3c(C)c4n(c3C)CCNC4=O)n2)ccc1N1CCOCC1", "note": "[Example I-3, 7-[2-(3-Methoxy-4-morpholin-4-yl-phenylamino)-pyrmidin-4-yl]-6,8-dimethyl-3,4-dihydro-2H-pyrrolo[1,2-a]pyrazin-1-one]", "values": [{"measurement": "IC50", "setting": "MiaPaCa", "value": 1850, "unit": "nM"}, {"measurement": "IC50", "setting": "aurora-A (human)", "value": "< 100", "unit": "nM"}, {"measurement": "Ki", "setting": "human CDK7/cyclin H", "value": 2790, "unit": "nM"}, {"measurement": "IC50", "setting": "[1]", "value": 4740, "unit": "nM"}, {"measurement": "MI (Cellomics) MPM2 % of Control**", "setting": "[1]", "value": 317, "unit": "%"}, {"measurement": "IC50", "setting": "A2780", "value": 750, "unit": "nM"}]}]}
